Values of other authors in patent US7514574B2, “Biodegradable penetration enhancers with multiple hydrophilic moieties” (priority 2003, dated 2009).

Columns and labels:
[1] = tested on: human cadaver skin; conditions: tritiated water, Hirvonen et al (1993)
[2] = tested on: mice; conditions: mouse, in vivo, ip

Row | Structure (SMILES) | increase of skin permeability to T2O (enhanced flux over passive flux) [1] [times] | LD50 [2] [mg/kg]
1 | CCCCCCCCCCCCN1CCCCCC1=O [Azone, 1-dodecylazacycloheptane-2-one] | 8 | 232
2 | CCCCCCCCCCCCOC(=O)CN(C)C [dodedyl, (N,N-dimethyl amino) acetate, dodecyl (N N-dimethyl amino) acetate] | 13 | 
